Measured values from BindingDB's records for PubMed 11082457 (Centre De Recherches De Croissy, 2000).
pKi: −log10 of the molar value.

Columns and labels:
[1] = target: T1, Amine oxidase [flavin-containing] A (Rattus norvegicus, UniProt P21396)
T1 sequence (P21396 whole entry): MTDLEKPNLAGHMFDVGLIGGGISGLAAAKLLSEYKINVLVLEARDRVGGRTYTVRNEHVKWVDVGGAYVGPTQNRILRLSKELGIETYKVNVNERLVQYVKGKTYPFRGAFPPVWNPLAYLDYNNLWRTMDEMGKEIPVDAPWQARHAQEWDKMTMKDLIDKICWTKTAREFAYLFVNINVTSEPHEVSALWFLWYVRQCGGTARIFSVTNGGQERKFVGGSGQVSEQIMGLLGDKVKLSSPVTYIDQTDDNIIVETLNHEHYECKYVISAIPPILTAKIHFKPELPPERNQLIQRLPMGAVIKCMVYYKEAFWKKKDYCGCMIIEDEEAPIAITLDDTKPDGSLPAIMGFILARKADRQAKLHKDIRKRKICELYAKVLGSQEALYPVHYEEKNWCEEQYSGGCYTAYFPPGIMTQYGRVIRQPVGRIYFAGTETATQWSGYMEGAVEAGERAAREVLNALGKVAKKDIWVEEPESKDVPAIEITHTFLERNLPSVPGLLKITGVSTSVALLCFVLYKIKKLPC

[2] = target: T2, Amine oxidase [flavin-containing] B (Rattus norvegicus, UniProt P19643)
T2 sequence (P19643 whole entry): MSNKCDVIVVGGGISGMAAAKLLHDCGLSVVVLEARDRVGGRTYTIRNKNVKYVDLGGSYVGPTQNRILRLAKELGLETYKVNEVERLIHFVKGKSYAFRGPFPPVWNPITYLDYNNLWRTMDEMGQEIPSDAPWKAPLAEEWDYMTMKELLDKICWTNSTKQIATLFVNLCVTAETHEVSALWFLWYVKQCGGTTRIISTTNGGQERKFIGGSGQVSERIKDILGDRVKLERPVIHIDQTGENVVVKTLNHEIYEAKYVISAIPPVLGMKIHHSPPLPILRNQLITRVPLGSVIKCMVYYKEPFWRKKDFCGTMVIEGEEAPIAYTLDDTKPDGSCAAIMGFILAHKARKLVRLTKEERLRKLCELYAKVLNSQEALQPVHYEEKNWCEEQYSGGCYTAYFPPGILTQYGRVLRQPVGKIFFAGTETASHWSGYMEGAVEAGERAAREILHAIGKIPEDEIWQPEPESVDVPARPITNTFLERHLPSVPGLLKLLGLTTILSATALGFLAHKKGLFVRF

[3] = target: Sodium-dependent noradrenaline transporter (Homo sapiens, UniProt P23975)
Chain of Sodium-dependent noradrenaline transporter (P23975 whole entry): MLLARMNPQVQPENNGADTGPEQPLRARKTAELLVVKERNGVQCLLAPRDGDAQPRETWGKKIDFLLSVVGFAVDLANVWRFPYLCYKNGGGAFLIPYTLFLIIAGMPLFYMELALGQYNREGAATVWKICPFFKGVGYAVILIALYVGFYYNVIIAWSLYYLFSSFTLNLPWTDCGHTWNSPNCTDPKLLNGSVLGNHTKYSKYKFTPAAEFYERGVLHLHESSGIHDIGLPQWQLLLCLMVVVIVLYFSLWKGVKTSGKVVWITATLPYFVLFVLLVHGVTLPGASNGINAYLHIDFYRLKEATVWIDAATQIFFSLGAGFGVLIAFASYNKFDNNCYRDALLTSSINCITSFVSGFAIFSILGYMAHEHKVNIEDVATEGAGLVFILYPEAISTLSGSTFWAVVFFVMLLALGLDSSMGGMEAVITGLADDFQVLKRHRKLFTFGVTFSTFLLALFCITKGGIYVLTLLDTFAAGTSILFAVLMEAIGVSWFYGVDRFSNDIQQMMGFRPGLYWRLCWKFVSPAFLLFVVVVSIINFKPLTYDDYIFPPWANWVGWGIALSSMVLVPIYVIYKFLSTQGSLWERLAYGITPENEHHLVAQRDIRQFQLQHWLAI

[4] = target: T3, Alpha-1B adrenergic receptor (Homo sapiens, UniProt P35368)
T3 sequence (P35368 whole entry): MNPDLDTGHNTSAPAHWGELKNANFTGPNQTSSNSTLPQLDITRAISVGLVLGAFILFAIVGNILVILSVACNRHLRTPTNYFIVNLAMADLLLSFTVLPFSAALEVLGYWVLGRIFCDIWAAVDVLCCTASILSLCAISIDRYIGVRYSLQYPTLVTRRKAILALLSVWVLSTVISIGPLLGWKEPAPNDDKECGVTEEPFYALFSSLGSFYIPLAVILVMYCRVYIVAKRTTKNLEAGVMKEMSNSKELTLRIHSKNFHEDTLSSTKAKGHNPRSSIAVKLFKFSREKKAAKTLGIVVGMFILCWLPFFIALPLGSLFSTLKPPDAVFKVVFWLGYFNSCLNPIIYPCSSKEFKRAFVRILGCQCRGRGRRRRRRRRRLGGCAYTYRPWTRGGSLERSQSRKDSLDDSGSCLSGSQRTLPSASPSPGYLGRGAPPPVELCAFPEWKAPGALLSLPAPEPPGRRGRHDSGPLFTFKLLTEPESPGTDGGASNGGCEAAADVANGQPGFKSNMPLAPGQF

[5] = target: T4, Alpha-1D adrenergic receptor (Homo sapiens, UniProt P25100)
T4 sequence (P25100 whole entry): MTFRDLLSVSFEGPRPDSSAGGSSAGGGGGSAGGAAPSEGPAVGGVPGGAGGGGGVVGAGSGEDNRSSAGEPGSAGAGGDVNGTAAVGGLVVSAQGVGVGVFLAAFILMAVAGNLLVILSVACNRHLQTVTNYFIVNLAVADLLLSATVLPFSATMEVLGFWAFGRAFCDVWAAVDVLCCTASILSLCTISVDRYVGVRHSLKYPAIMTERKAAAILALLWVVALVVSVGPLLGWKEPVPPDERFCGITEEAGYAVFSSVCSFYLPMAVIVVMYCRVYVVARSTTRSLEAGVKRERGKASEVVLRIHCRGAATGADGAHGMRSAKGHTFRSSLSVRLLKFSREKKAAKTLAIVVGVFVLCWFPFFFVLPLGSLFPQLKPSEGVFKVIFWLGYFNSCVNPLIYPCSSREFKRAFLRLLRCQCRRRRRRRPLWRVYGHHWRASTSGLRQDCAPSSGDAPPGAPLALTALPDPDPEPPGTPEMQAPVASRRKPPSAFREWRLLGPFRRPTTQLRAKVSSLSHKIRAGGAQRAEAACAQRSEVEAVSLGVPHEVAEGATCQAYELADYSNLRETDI

Nischarin = Nischarin (Rattus norvegicus, UniProt Q4G017)
Chain of Nischarin (Q4G017 whole entry): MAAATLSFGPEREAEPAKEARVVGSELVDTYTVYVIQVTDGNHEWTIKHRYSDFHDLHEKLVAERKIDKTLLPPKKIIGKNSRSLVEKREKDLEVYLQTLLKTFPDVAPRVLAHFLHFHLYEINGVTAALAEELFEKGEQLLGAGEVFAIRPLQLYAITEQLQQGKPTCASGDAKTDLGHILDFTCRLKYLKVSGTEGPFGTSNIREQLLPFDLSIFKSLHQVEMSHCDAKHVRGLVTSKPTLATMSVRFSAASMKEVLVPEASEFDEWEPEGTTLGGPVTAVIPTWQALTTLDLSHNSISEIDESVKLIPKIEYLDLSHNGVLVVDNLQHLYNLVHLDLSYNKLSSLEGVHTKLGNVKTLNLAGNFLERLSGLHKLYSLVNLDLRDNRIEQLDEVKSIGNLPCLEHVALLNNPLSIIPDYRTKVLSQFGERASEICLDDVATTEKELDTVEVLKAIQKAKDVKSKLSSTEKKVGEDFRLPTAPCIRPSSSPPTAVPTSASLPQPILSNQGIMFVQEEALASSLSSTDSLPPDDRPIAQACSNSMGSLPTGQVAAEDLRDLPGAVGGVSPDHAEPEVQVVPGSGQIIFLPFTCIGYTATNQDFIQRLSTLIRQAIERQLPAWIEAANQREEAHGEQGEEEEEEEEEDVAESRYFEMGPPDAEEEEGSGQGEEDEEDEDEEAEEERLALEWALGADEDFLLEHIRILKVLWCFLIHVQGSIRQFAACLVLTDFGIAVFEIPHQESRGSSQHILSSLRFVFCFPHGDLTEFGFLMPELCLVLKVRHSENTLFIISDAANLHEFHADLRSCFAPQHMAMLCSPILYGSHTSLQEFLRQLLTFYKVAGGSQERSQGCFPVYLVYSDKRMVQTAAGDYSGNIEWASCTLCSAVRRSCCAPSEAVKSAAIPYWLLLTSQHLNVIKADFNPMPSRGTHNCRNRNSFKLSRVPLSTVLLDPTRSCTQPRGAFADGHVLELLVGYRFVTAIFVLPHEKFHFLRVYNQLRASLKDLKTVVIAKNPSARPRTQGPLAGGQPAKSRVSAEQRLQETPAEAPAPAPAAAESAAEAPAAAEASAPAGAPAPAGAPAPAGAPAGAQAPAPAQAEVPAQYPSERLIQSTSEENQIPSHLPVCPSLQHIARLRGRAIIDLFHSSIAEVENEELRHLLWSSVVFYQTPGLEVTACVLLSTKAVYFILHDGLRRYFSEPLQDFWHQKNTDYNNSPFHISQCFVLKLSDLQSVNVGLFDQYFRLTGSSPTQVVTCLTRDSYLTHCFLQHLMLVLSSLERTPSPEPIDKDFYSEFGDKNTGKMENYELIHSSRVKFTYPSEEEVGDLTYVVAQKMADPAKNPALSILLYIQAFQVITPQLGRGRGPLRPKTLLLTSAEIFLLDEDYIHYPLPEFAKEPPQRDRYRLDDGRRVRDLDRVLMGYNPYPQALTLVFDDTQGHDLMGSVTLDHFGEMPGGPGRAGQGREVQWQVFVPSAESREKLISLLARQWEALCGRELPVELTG

pKi [1]: 6.00
pKi [2]: 6.00
pKi [3]: 6.00
pKi [4]: 6.50
pKi [5]: 6.90
pKi (Nischarin): 6.00
Structure (SMILES): Clc1cccc(Cl)c1N=C1NCCN1 [2-(2,6-dichloroanilino)-2-imidazoline]
